Data reported in the NIST ThermoML archive (doi:10.1021/je4000394).
Numbers after ± are expanded uncertainties.

Key:
[1] = Liquid, Vibrating tube method
[2] = xn = mol fraction of the nth substance listed; conditions: Liquid; for mass density: Vibrating tube method; for viscosity: 325.2 K, Flow viscometer

CCCCCCCCCC [decane]
[1], 323.2 K
Conditions | mass density [kg/m3]
100 kPa | 707 ± 0.3
1000 kPa | 707.9 ± 0.4
2000 kPa | 708.8 ± 0.4
3000 kPa | 709.7 ± 0.4
4000 kPa | 710.6 ± 0.4
5000 kPa | 711.5 ± 0.4
6000 kPa | 712.4 ± 0.4
7000 kPa | 713.3 ± 0.4
8000 kPa | 714.1 ± 0.4
9000 kPa | 715 ± 0.4
10000 kPa | 715.9 ± 0.4

CCCCCCCCCC [decane] + CCCCCCCCCCCCCCCCCC
[2], 323.2 K, x1 = 1
Conditions | mass density [kg/m3]
100 kPa | 707 ± 0.3
1000 kPa | 707.9 ± 0.4
2000 kPa | 708.8 ± 0.4
3000 kPa | 709.7 ± 0.4
4000 kPa | 710.6 ± 0.4
5000 kPa | 711.5 ± 0.4
6000 kPa | 712.4 ± 0.4
7000 kPa | 713.3 ± 0.4
8000 kPa | 714.1 ± 0.4
9000 kPa | 715 ± 0.4
10000 kPa | 715.9 ± 0.4

CCCCCCCCCCCCCCCCCC [octadecane]
[1], 323 K
Conditions | mass density [kg/m3]
100 kPa | 761.2 ± 0.4
1000 kPa | 761.9 ± 0.4
2000 kPa | 762.7 ± 0.4
3000 kPa | 763.3 ± 0.4
4000 kPa | 764 ± 0.4
5000 kPa | 764.8 ± 0.4
6000 kPa | 765.4 ± 0.4
7000 kPa | 766 ± 0.4
8000 kPa | 766.7 ± 0.4
9000 kPa | 767.5 ± 0.4
10000 kPa | 768.1 ± 0.4

CCCCCCCCCCCCCCCCCC [octadecane] + CCCCCCCCCC
mass density [kg/m3], [2]
Conditions | x2 = 0 | x2 = 0.25 | x2 = 0.5 | x2 = 0.75
323 K, 100 kPa | 761.2 ± 0.4 | – | – | 726.3 ± 0.4
323 K, 1000 kPa | 761.9 ± 0.4 | – | – | 727.1 ± 0.4
323 K, 2000 kPa | 762.7 ± 0.4 | – | – | 728 ± 0.4
323 K, 3000 kPa | 763.3 ± 0.4 | – | – | 728.8 ± 0.4
323 K, 4000 kPa | 764 ± 0.4 | – | – | 729.6 ± 0.4
323 K, 5000 kPa | 764.8 ± 0.4 | – | – | 730.4 ± 0.4
323 K, 6000 kPa | 765.4 ± 0.4 | – | – | 731.2 ± 0.4
323 K, 7000 kPa | 766 ± 0.4 | – | – | 732.1 ± 0.4
323 K, 8000 kPa | 766.7 ± 0.4 | – | – | 732.9 ± 0.4
323 K, 9000 kPa | 767.5 ± 0.4 | – | – | 733.7 ± 0.4
323 K, 10000 kPa | 768.1 ± 0.4 | – | – | 734.5 ± 0.4
323.1 K, 100 kPa | – | 752.2 ± 0.4 | 740.8 ± 0.4 | –
323.1 K, 1000 kPa | – | 752.9 ± 0.4 | 741.6 ± 0.4 | –
323.1 K, 2000 kPa | – | 753.7 ± 0.4 | 742.4 ± 0.4 | –
323.1 K, 3000 kPa | – | 754.5 ± 0.4 | 743.1 ± 0.4 | –
323.1 K, 4000 kPa | – | 755.2 ± 0.4 | 743.9 ± 0.4 | –
323.1 K, 5000 kPa | – | 755.9 ± 0.4 | 744.7 ± 0.4 | –
323.1 K, 6000 kPa | – | 756.7 ± 0.4 | 745.5 ± 0.4 | –
323.1 K, 7000 kPa | – | 757.3 ± 0.4 | 746.2 ± 0.4 | –
323.1 K, 8000 kPa | – | 758.1 ± 0.4 | 747 ± 0.4 | –
323.1 K, 9000 kPa | – | 758.8 ± 0.4 | 747.8 ± 0.4 | –
323.1 K, 10000 kPa | – | 759.6 ± 0.4 | 748.6 ± 0.4 | –

[2], 100 kPa
Conditions | viscosity [mPa·s]
x1 = 0.25 | 0.883 ± 0.07
x1 = 0.5 | 1.31 ± 0.12
x1 = 0.75 | 1.702 ± 0.14
